# Experimental data as given in US20220362253A1, “NOVEL PHARMACEUTICAL FORMULATION” (GLAXOSMITHKLINE INTELLECTUAL PROPERTY DEVELOPMENT LIMITED, priority 2018, published 2022).
# Where “and” joins values, the source holds several entries; their conditions need not be identical. Identical values can stand only once.
# Assays:
# cynomolgus monkeys = assay: Injection site reactions after repeat IV bolus dosing (Example 17); format: in vivo, cynomolgus monkey; details: weekly IV bolus into antecubital vein then saline flush, 30 mM L-aspartic acid, 3.7% mannitol, pH approximately 3.0, non-stoichiometric hydrate form
# Description: In vivo studies were conducted in cynomolgus monkeys administered IV doses of Compound A in a vehicle of 30 mM L-aspartic acid, 3.7% mannitol in Sterile Water for Injection, pH approximately 3.0. For these studies, Compound A was used in a non-stoichiometric hydrate form according to Table 6.
# [1] = Solubility screening up to 2 mg/mL at RT in aqueous acid media (Examples 7 to 13); format: physicochemical; details: target up to 2 mg/mL; for solubility at 24 h: thermodynamic from solid, read-out: Drug Solubility
# [2] = Stated physical properties: water solubility, hygroscopicity; format: physicochemical
# Stated bioavailability = details: oral
# [3] = Solubility in 20 mM acetic, citric and L-aspartic aqueous media as a function of pH (Example 14); format: physicochemical
# [4] = Aqueous solubility with glutamic acid and glucuronic acid (Example 15); format: physicochemical; details: aqueous buffer, thermodynamic from solid, adjusted pH 4.1, filtered supernatant
# Source text: Aqueous solubility of Compound A with glutamic acid and glucuronic acid were explored in Example 15.
# [5] = Solubility screening up to 5 mg/mL at RT in aqueous acid media (Examples 1 to 6); format: physicochemical; details: free base; for solubility at 24 h: thermodynamic from solid, read-out: Drug Solubility
# Description: Solubility of Compound A was conducted by adding a known quantity of drug to specific volume of aqueous media followed by 24 hour agitation at room temperature (RT).
# [6] = pHmax / Ksp determination with L-aspartic acid (Example 16); format: physicochemical; details: for solubility: L-aspartic acid solution, thermodynamic from solid, >110 hr stirring at RT, read-out: Drug Solubility; for solubility / pH max: L-aspartic acid; for pH max: pHmax = pKa + log (S0/√Ksp)
# Description: Compound A solubility was separately determined by controlling the mole ratio of L-aspartic acid relative to drug in Example 16. The concentrations of drug and counterion were measured in supernatant to calculate Ksp (Solubility product) (Table 5).
compound,measurement,setting,value
"CCn1nc(C)cc1C(=O)Nc1nc2cc(C(N)=O)cc(OC)c2n1C/C=C/Cn1c(NC(=O)c2cc(C)nn2CC)nc2cc(C(N)=O)cc(OCCCN3CCOCC3)c21 [Compound A, (E)-1-(4-(5-Carbamoyl-2-(1-ethyl-3-methyl-1H-pyrazole-5-carboxamido)-7-(3-morpholinopropoxy)-1H-benzo[d]imidazol-1-yl)but-2-en-1-yl)-2-(1-ethyl-3-methyl-1H-pyrazole-5-carboxamido)-7-methoxy-1H-benzo[d]imidazole-5-carboxamide]",Injection site reactions,cynomolgus monkeys,no Compound A-related injection site reactions were observed
same,Drug Solubility,"[1]; 10 mM Acetic acid, solution pH 3.33, stirred 24 h",1.45 mg/mL
same,Drug Solubility,"[1]; 10 mM Methane sulfonic acid, solution pH 1.99, stirred 24 h",1.78 mg/mL
same,solubility at 24 h,"[1]; 10 mM acetic acid aqueous medium, pH 3.33, aqueous buffer, 10 mM Acetic acid, solution pH 3.33, stirred 24 h",> 1000 µg/mL
same,solubility at 24 h,"[1]; 10 mM methane sulfonic acid aqueous medium, pH 1.99, aqueous buffer, 10 mM Methane sulfonic acid, solution pH 1.99, stirred 24 h",> 1000 µg/mL
same,Drug Solubility,"[1]; 25 mM Aspartic acid, solution pH 2.95, stirred 24 h",1.80 mg/mL
same,Drug Solubility,"[1]; 25 mM Citric acid, solution pH 2.32, stirred 24 h",1.81 mg/mL
same,Drug Solubility,"[1]; 25 mM Lactic acid, solution pH 2.57, stirred 24 h",1.83 mg/mL
same,Drug Solubility,"[1]; 25 mM Tartaric acid, solution pH 2.33, stirred 24 h",0.80 mg/mL
same,solubility at 24 h,"[1]; 25 mM aspartic acid aqueous medium, pH 2.95, aqueous buffer, 25 mM Aspartic acid, solution pH 2.95, stirred 24 h",> 1000 µg/mL
same,solubility at 24 h,"[1]; 25 mM citric acid aqueous medium, pH 2.32, aqueous buffer, 25 mM Citric acid, solution pH 2.32, stirred 24 h",> 1000 µg/mL
same,solubility at 24 h,"[1]; 25 mM lactic acid aqueous medium, pH 2.57, aqueous buffer, 25 mM Lactic acid, solution pH 2.57, stirred 24 h",> 1000 µg/mL
same,solubility at 24 h,"[1]; 25 mM tartaric acid aqueous medium, pH 2.33, aqueous buffer, 25 mM Tartaric acid, solution pH 2.33, stirred 24 h",< 1000 µg/mL
same,solubility,[2],< 10 µg/mL
same,bioavailability,Stated bioavailability,poor oral bioavailability
same,solubility,"[3]; 20 mM L-aspartic acid aqueous media, 22 °C, aqueous buffer, thermodynamic from solid, 20 mM L-aspartic acid media, pH 6.14, 22 ± 1° C., Compound A in excess, read-out: Solubility",0.7 µg/mL
same,solubility,"[3]; 20 mM L-aspartic acid aqueous media, 22 °C, aqueous buffer, thermodynamic from solid, 20 mM L-aspartic acid media, pH 7.97, 22 ± 1° C., Compound A in excess, read-out: Solubility",0.5 µg/mL
same,solubility,"[3]; 20 mM L-aspartic acid aqueous media, 22 °C, aqueous buffer, thermodynamic from solid, 20 mM L-aspartic acid media, pH 8.87, 22 ± 1° C., Compound A in excess, read-out: Solubility",0.9 µg/mL
same,solubility,"[3]; 20 mM L-aspartic acid aqueous medium, aqueous buffer, Aspartic acid, at pH<3, read-out: Highest solubility",4000 µg/mL
same,solubility,"[3]; 20 mM acetic acid aqueous media, 22 °C, aqueous buffer, thermodynamic from solid, 20 mM acetic acid media, pH 6.42, 22 ± 1° C., Compound A in excess, read-out: Solubility",0.5 µg/mL
same,solubility,"[3]; 20 mM acetic acid aqueous media, 22 °C, aqueous buffer, thermodynamic from solid, 20 mM acetic acid media, pH 9.84, 22 ± 1° C., Compound A in excess, read-out: Solubility",0.5 µg/mL
same,solubility,"[3]; 20 mM acetic, citric or L-aspartic acid aqueous media, aqueous buffer, at pH 4.0, any of the counter ions (L-aspartic, acetic, citric acid), read-out: Solubility",≤ 500 µg/mL
same,solubility,"[3]; 20 mM citric acid aqueous media, 22 °C, aqueous buffer, thermodynamic from solid, 20 mM citric acid media, pH 6.92, 22 ± 1° C., Compound A in excess, read-out: Solubility",0.5 µg/mL
same,solubility,"[3]; 20 mM citric acid aqueous media, 22 °C, aqueous buffer, thermodynamic from solid, 20 mM citric acid media, pH 8.82, 22 ± 1° C., Compound A in excess, read-out: Solubility",0.5 µg/mL
same,solubility,"[3]; 22 °C, aqueous buffer, thermodynamic from solid, 20 mM L-aspartic acid media, pH 3.05, 22 ± 1° C., Compound A in excess, read-out: Solubility",5270 µg/mL
same,solubility,"[3]; 22 °C, aqueous buffer, thermodynamic from solid, 20 mM L-aspartic acid media, pH 3.23, 22 ± 1° C., Compound A in excess, read-out: Solubility",3970 µg/mL
same,solubility,"[3]; 22 °C, aqueous buffer, thermodynamic from solid, 20 mM L-aspartic acid media, pH 3.76, 22 ± 1° C., Compound A in excess, read-out: Solubility",472 µg/mL
same,solubility,"[3]; 22 °C, aqueous buffer, thermodynamic from solid, 20 mM L-aspartic acid media, pH 3.96, 22 ± 1° C., Compound A in excess, read-out: Solubility",227 µg/mL
same,solubility,"[3]; 22 °C, aqueous buffer, thermodynamic from solid, 20 mM L-aspartic acid media, pH 4.18, 22 ± 1° C., Compound A in excess, read-out: Solubility",68.7 µg/mL
same,solubility,"[3]; 22 °C, aqueous buffer, thermodynamic from solid, 20 mM L-aspartic acid media, pH 4.54, 22 ± 1° C., Compound A in excess, read-out: Solubility",16.7 µg/mL
same,solubility,"[3]; 22 °C, aqueous buffer, thermodynamic from solid, 20 mM L-aspartic acid media, pH 4.93, 22 ± 1° C., Compound A in excess, read-out: Solubility",5 µg/mL
same,solubility,"[3]; 22 °C, aqueous buffer, thermodynamic from solid, 20 mM acetic acid media, pH 3.26, 22 ± 1° C., Compound A in excess, read-out: Solubility",1760 µg/mL
same,solubility,"[3]; 22 °C, aqueous buffer, thermodynamic from solid, 20 mM acetic acid media, pH 3.58, 22 ± 1° C., Compound A in excess, read-out: Solubility",1090 µg/mL
same,solubility,"[3]; 22 °C, aqueous buffer, thermodynamic from solid, 20 mM acetic acid media, pH 3.71, 22 ± 1° C., Compound A in excess, read-out: Solubility",810 µg/mL
same,solubility,"[3]; 22 °C, aqueous buffer, thermodynamic from solid, 20 mM acetic acid media, pH 3.91, 22 ± 1° C., Compound A in excess, read-out: Solubility",396 µg/mL
same,solubility,"[3]; 22 °C, aqueous buffer, thermodynamic from solid, 20 mM acetic acid media, pH 4.09, 22 ± 1° C., Compound A in excess, read-out: Solubility",269 µg/mL
same,solubility,"[3]; 22 °C, aqueous buffer, thermodynamic from solid, 20 mM acetic acid media, pH 4.64, 22 ± 1° C., Compound A in excess, read-out: Solubility",24.1 µg/mL
same,solubility,"[3]; 22 °C, aqueous buffer, thermodynamic from solid, 20 mM acetic acid media, pH 4.85, 22 ± 1° C., Compound A in excess, read-out: Solubility",10.8 µg/mL
same,solubility,"[3]; 22 °C, aqueous buffer, thermodynamic from solid, 20 mM acetic acid media, pH 5.48, 22 ± 1° C., Compound A in excess, read-out: Solubility",2.9 µg/mL
same,solubility,"[3]; 22 °C, aqueous buffer, thermodynamic from solid, 20 mM citric acid media, pH 2.47, 22 ± 1° C., Compound A in excess, read-out: Solubility",456 µg/mL
same,solubility,"[3]; 22 °C, aqueous buffer, thermodynamic from solid, 20 mM citric acid media, pH 2.61, 22 ± 1° C., Compound A in excess, read-out: Solubility",195 µg/mL
same,solubility,"[3]; 22 °C, aqueous buffer, thermodynamic from solid, 20 mM citric acid media, pH 2.74, 22 ± 1° C., Compound A in excess, read-out: Solubility",81.6 µg/mL
same,solubility,"[3]; 22 °C, aqueous buffer, thermodynamic from solid, 20 mM citric acid media, pH 3.98, 22 ± 1° C., Compound A in excess, read-out: Solubility",5.4 µg/mL
same,solubility,"[3]; 22 °C, aqueous buffer, thermodynamic from solid, 20 mM citric acid media, pH 4.94, 22 ± 1° C., Compound A in excess, read-out: Solubility",4 µg/mL
same,solubility,"[3]; 22 °C, aqueous buffer, thermodynamic from solid, 20 mM citric acid media, pH 5.91, 22 ± 1° C., Compound A in excess, read-out: Solubility",1.3 µg/mL
same,solubility,"[3]; 22 °C, pH 2.9, aqueous buffer, thermodynamic from solid, 20 mM citric acid media, pH 2.90, 22 ± 1° C., Compound A in excess, read-out: Solubility",41.5 µg/mL
same,solubility,"[3]; 22 °C, pH 3.4, aqueous buffer, thermodynamic from solid, 20 mM citric acid media, pH 3.40, 22 ± 1° C., Compound A in excess, read-out: Solubility",8.3 µg/mL
same,solubility,"[4]; aqueous glucuronic acid (1 mol eq), Glucuronic acid (1 mol eq)",9000 µg/mL
same,solubility,"[4]; aqueous glutamic acid (1 mol eq), Glutamic acid (1 mol eq)",4500 µg/mL
same,Drug Solubility,"[5]; 9.5 mM Lactic acid, solution pH 3.83, stirred 24 h at RT",3.59 mg/mL
same,solubility at 24 h,"[5]; 9.5 mM lactic acid aqueous medium, pH 3.83, aqueous buffer, 9.5 mM Lactic acid, solution pH 3.83, stirred 24 h at RT",> 3500 µg/mL
same,Drug Solubility,"[5]; 50 mM Citric acid, solution pH 2.30, stirred 24 h at RT",1.32 mg/mL
same,solubility at 24 h,"[5]; 50 mM citric acid aqueous medium, pH 2.3, aqueous buffer, 50 mM Citric acid, solution pH 2.30, stirred 24 h at RT",< 2000 µg/mL
same,Drug Solubility,"[5]; 72.8 mM Methane sulfonic acid, solution pH 1.27, stirred 24 h at RT",3.85 mg/mL
same,solubility at 24 h,"[5]; 72.8 mM methane sulfonic acid aqueous medium, pH 1.27, aqueous buffer, 72.8 mM Methane sulfonic acid, solution pH 1.27, stirred 24 h at RT",> 3500 µg/mL
same,Drug Solubility,"[5]; 170 mM Acetic acid, solution pH 3.16, stirred 24 h at RT",4.05 mg/mL
same,solubility at 24 h,"[5]; 170 mM acetic acid aqueous medium, pH 3.16, aqueous buffer, 170 mM Acetic acid, solution pH 3.16, stirred 24 h at RT",> 3500 µg/mL
same,solubility,[6]; counterion conc. 8.45 mM,4070 µg/mL and 4790 µM
same,solubility,[6]; counterion conc. 8.70 mM,3950 µg/mL and 4640 µM
same,solubility,[6]; counterion conc. 9.18 mM,3940 µg/mL and 4640 µM
same,solubility,[6]; counterion conc. 9.33 mM,4140 µg/mL and 4880 µM
same,pH max,[6]; counterion conc. 8.45 mM,3.57
same,pH max,[6]; counterion conc. 8.70 mM,3.57
same,pH max,[6]; counterion conc. 9.18 mM,3.56
same,pH max,[6]; counterion conc. 9.33 mM,3.54
same,pHmax,"[6]; in L-aspartic acid media, from the Ksp measurements in Table 5",3.5-3.6
same,pKa,"[6]; value used for the pHmax calculation, read-out: pKa of drug",7
